The record followed here is patent US20250320249A1, “PEPTIDE HAVING ACTIVITY OF IMPROVING STATE OF SKIN, AND USE THEREOF” (CAREGEN CO., LTD., priority 2021, published 2025).

The subject of experiment [1] is NIH3T3 cells. Kind of experiment: Level of reactive oxygen species in ultraviolet-irradiated skin cells (DCF-DA, flow cytometry). Particulars: 6 J/cm2 ultraviolet rays, 50 μM or 100 μM peptide, 24 hours, FIG. 7A. In kind it is cell-based, mouse. On the procedure: (§1) In this example, the aim was to confirm the effect of the peptide according to an embodiment on the antioxidant effect of skin cells induced by ultraviolet rays, by evaluating the level of reactive oxygen species in skin cells increased by ultraviolet irradiation.
(§2) Specifically, NIH3T3 cells or HaCaT cells were seeded in a 6-well plate at a density of 5×10^5 cells/well and cultured for 24 hours. The cells were then washed once with serum-free DMEM media, the culture medium was replaced with serum-free DMEM media, and 50 μM or 100 μM of the peptide consisting of the amino acid sequence of SEQ ID NO: 1 was dispensed to the culture medium. The culture medium dispensed with the peptide was cultured in a CO2 incubator at 37° C. for 1 hour, transferred to an e-tube, mixed with 100 μl of PBS, and dispensed into a well plate. Afterwards, using a UV irradiator (VILBER LOURMAT, France), 6 J/cm2 ultraviolet rays were irradiated to NIH3T3 cells, and 15 m J/cm2 ultraviolet rays were irradiated to HaCaT cells. The PBS in the well plate was then removed, 900 μL of the culture medium in which the peptides were dispensed was added, and the plate was cultured in a CO2 incubator at 37° C. for 24 hours. […] After washing the centrifuged cells with PBS, FL1 fluorescence values were measured through flow cytometry (FACS, BD, USA). […]
(Flow cytometry measures light scatter and fluorescence of single cells or particles in a stream.)

Another experiment relates to fibronectin. Nature of the experiment: Expression of extracellular matrix constituent factor in NIH3T3 cells (RT-PCR). It counts as cell-based, mouse. The following applies: 50 μM or 100 μM peptide, 24 hours, FIG. 2, FIG. 3B. On the procedure:
(§3) In this example, the aim was to confirm the effect of the peptide according to an example on improving endogenous skin aging, including improvement of wrinkles and enhancement of elasticity, etc., by evaluating the expression levels of collagen type 1 (Col1a1), fibronectin, or elastin, which are known components of the dermis.
(§4) Specifically, NIH3T3 cells were seeded in a 6-well plate at a density of 3×10^5 cells/well and cultured for 24 hours. The cells were then washed once with serum-free DMEM media, and the culture medium was replaced with serum-free DMEM media. Thereafter, 50 μM or 100 μM of the peptide consisting of the amino acid sequence of SEQ ID NO: 1 was dispensed into the medium, and cultured in a CO2 incubator at 37° C. for 24 hours. The culture was then washed twice with PBS, and RNA was isolated from the culture using easy blue (iNtRON, Korea). Using an RT kit (Enzynomics, Korea), 1 μg of the isolated RNA was reverse transcribed to synthesize the respective cDNA. Polymerase chain reaction (PCR) was then performed using the cDNAs and primers Col1a1, fibronectin, and elastin. Meanwhile, the untreated group was used as the control group, and the group to which TGF-β1 was added (TGF-β1) was used as the positive control group, the nucleotide sequences of the primers used in this example are shown in Table 2 below.

Another experiment has as its system collagen type 1 (Col1a1). The experiment is described as above. In kind it is cell-based, mouse. The following applies: 50 μM or 100 μM peptide, 24 hours, FIG. 2, FIG. 3A. The protocol: as §3, §4
The next experiment relates to elastin. The description is as above. In kind it is cell-based, mouse. The following applies: 50 μM or 100 μM peptide, 24 hours, FIG. 2, FIG. 3C. The protocol:
as §3, §4

Experiment [2] concerns HaCaT cells. Kind of experiment: Survival rate of skin cells after apoptosis induced by ultraviolet irradiation (SRB). Particulars: 15 m J/cm^2 ultraviolet rays, 50 μM or 100 μM peptide, 72 hours, FIG. 6B. In kind it is cell-based, human. On the procedure: (§5) In this example, the aim was to confirm the effect of the peptide according to an example on the inhibition of apoptosis or cell recovery of skin cells induced by ultraviolet rays, by evaluating the change in survival rate of skin cells whose apoptosis was induced by ultraviolet irradiation.
(§6) Specifically, NIH3T3 cells or HaCaT cells were seeded in a 96-well plate at a density of 1×10^4 cells/well and cultured for 24 hours. The cells were then washed once with serum-free DMEM media, the culture medium was replaced with serum-free DMEM media, and 50 μM or 100 μM of the peptide consisting of the amino acid sequence of SEQ ID NO: 1 was dispensed to the culture medium. The culture medium dispensed with the peptide was cultured in a CO2 incubator at 37° C. for 1 hour, transferred to an e-tube, mixed with 100 μl of PBS, and dispensed into a well plate. Afterwards, using a UV irradiator (VILBER LOURMAT, France), 6 J/cm^2 ultraviolet rays were irradiated to NIH3T3 cells, and 15 m J/cm^2 ultraviolet rays were irradiated to HaCaT cells. The PBS in the well plate was then removed, 900 μL of the culture medium in which the peptides were dispensed was added, and the plate was cultured in a CO2 incubator at 37° C. for 72 hours. […] The dried culture was then dissolved in 20 mM Tris buffer solution and the absorbance at 560 nm was measured using a microplate reader (Molecular Devices, USA). […]

Experiment [3] has as its system HaCaT cells. Kind of experiment: Proliferation of skin cells (SRB staining, survival rate). It counts as cell-based, human. Particulars: 50 μM or 100 μM peptide, 72 hours, serum-free DMEM, FIG. 1B. The protocol: (§7) In this example, the aim was to confirm the effect of a peptide according to an example on proliferation of skin cells, by evaluating changes in survival rate of NIH3T3 cells, which are mouse fibroblasts, or HaCaT cells, which are human keratinocytes.
(§8) Specifically, NIH3T3 cells or HaCaT cells were seeded in a 96-well plate at a density of 5×10^3 cells/well and cultured for 24 hours. The cells were then washed once with serum-free DMEM media, and the culture medium was replaced with serum-free DMEM media. Then, 50 μM or 100 μM of the peptide consisting of the amino acid sequence of SEQ ID NO: 1 was dispensed into the medium, and cultured in a CO2 incubator at 37° C. for 72 hours. The culture was then washed twice with PBS and treated with 4% paraformaldehyde (PFA) solution for 15 minutes to fix the cultured cells. The culture was then washed twice with distilled water, treated with SRB solution for 1 hour to stain the cells, washed with 1% acetic acid solution, and dried. The dried culture was then dissolved in 20 mM Tris buffer solution and the absorbance at 560 nm was measured using a microplate reader (Molecular Devices, USA). In this example, the untreated group was used as the control group, and the group to which insulin-like growth factor was added (IGF) was used as the positive control group.
On the technique in general: In SRB staining, fixed cells bind dye roughly in proportion to their protein.

The subject of experiment [4] is NIH3T3 cells. Kind of experiment: Survival rate of skin cells after apoptosis induced by ultraviolet irradiation (SRB). In kind it is cell-based, mouse. Particulars: 6 J/cm^2 ultraviolet rays, 50 μM or 100 μM peptide, 72 hours, FIG. 6A. On the procedure:
as §5, §6

The next experiment relates to sirtuin-1 (SIRT-1). Nature of the experiment: Expression of skin barrier factor in HaCaT cells (RT-PCR). It counts as cell-based, human. The following applies: 50 μM or 100 μM peptide, 24 hours, FIG. 4, FIG. 5A. On the procedure:
(§9) In this example, the aim was to confirm the effect of the peptides according to an example on skin barrier defense, by evaluating the expression levels of sirtuin-1 (SIRT-1) or aquaporin-3 (AQP3).
(§10) Specifically, HaCaT cells were seeded in a 6-well plate at a density of 3×10^5 cells/well and cultured for 24 hours. The cells were then washed once with serum-free DMEM media, and the culture medium was replaced with serum-free DMEM media. Thereafter, 50 μM or 100 μM of the peptide consisting of the amino acid sequence of SEQ ID NO: 1 was dispensed into the medium, and cultured in a CO2 incubator at 37° C. for 24 hours. The culture was then washed twice with PBS, and RNA was isolated from the culture using easy blue (iNtRON, Korea). Using the RT kit (Enzynomics, Korea), 1 μg of the isolated RNA was reverse transcribed to synthesize the respective cDNA. Polymerase chain reaction was then performed using the cDNAs and primers sirtuin-1 and aquaporin-3. Meanwhile, the untreated group was used as the control group, and the group to which EGF was added (EGF) was used as the positive control group, the nucleotide sequences of the primers used in this example are shown in Table 3 below.

In another experiment the test system is aquaporin-3 (AQP3). The description is as above. In kind it is cell-based, human. Particulars: 50 μM or 100 μM peptide, 24 hours, FIG. 4, FIG. 5B. The protocol: as §9, §10
Experiment [5] has as its system HaCaT cells. Nature of the experiment: Level of reactive oxygen species in ultraviolet-irradiated skin cells (DCF-DA, flow cytometry). In kind it is cell-based, human. Particulars: 15 m J/cm2 ultraviolet rays, 50 μM or 100 μM peptide, 24 hours, FIG. 7B. The protocol:
as §1, §2

The test system of experiment [6] is NIH3T3 cells. Kind of experiment: Proliferation of skin cells (SRB staining, survival rate). The following applies: 50 μM or 100 μM peptide, 72 hours, serum-free DMEM, FIG. 1A. In kind it is cell-based, mouse. The protocol: as §7, §8

Turning to DGFND (Peptide 1) [SEQ ID NO: 1], in the experiment on NIH3T3 cells [1], the “level of reactive oxygen species in fibroblasts increased by ultraviolet irradiation” value is “reduced”. The expression of fibronectin result in the experiment on fibronectin is recorded as “increased”. The “expression of Col1a1” value in the experiment on collagen type 1 (Col1a1) was “increased”. Further, in the experiment on elastin, the expression of elastin entry was “increased”. For the same substance, the “cell survival rate of keratinocytes reduced by ultraviolet irradiation” value with HaCaT cells [2] is given as “restored”. In the experiment with HaCaT cells [3], the proliferation of keratinocytes result was “promoted”. In the experiment on NIH3T3 cells [4], the “cell survival rate of fibroblasts reduced by ultraviolet irradiation” value is reported as “restored”. In addition, the “expression of SIRT-1” value in the experiment with sirtuin-1 (SIRT-1) is recorded as “increased”. In addition, in the experiment with aquaporin-3 (AQP3), the “expression of AQP3” value was “increased”. The “level of reactive oxygen species in keratinocytes increased by ultraviolet irradiation” value with HaCaT cells [5] is listed as “reduced”. Further, in the experiment with NIH3T3 cells [6], the proliferation of fibroblasts entry is reported as “promoted”.
